pIC50: −log10 of the molar value.
Key:
Assay type in all cases: biochemical
[1] = molecular target: T1, BTK kinase (Homo sapiens, UniProt Q06187); experiment: Kinase activity inhibition assay (HTRF TK Kit)
T1 construct: purchased Invitrogen PV3587
Text: (§1) In this assay, the HTRF TK Kit (Catalog No. 62TK0PEC) provided by Cisbio was used to detect the inhibitory activity of compounds on BTK kinase, BTK T474I kinase and BTK C481 S kinase and the selectivity of compounds relative to EGFR, ITK and TEC kinases.
(§2) Reagents and consumables: BTK kinase (Invitrogen, Catalog No. PV3587), BTK C481S (Carna, Product No. 08-547), BTK T474I(SignalChem Product No. B10-12HH), ITK (Cama, Product No. 08-181), EGFR (Cama, Product No. 08-115), TEC (Carna, Product No. 08-182), HTRF-TK kit (Cisbio, Product No. 62TK0PEC), MgCl2 (Sigma, Product No. M1028), MnCl2 (Sigma, Product No. M1787), DTT (Sigma, Product No. D0632), ATP (Sigma, Product No. A7699-1g), DMSO (Sigma, Product No. D2650), 384-well plate (PE, Product No. 6008280).
(§3) The entire operation steps were carried out on ice, and the total reaction volume was 10µL. A compound (4µL), substrate and ATP (4µL), and kinase (2µL) were added in sequence to a 384-well plate, and the plate was shaken for 30 seconds. The mixture was reacted at room temperature for an appropriate time, and then the detection reagent was added. The resulting mixture was reacted at room temperature for 1 hour, and then the plate was assayed with a microplate reader. The specific steps were as follows: • a) a 1 × kinase buffer solution required for the kinase assay was calculated according to the amount of the test compound, and prepared as needed; • b) 2.5 × working concentration of a compound was prepared, 100-fold gradient concentration solutions of a compound were diluted by 40 × to the desired concentration, respectively, mixed well, and added to each well at 4 µL per well; • c) 5 × working concentration of the substrate and ATP were prepared, mixed in a ratio of 1:1 before being added to the 384-well plate, and added to each well at 4 µL per well; • d) 5 × working concentration of a kinase was prepared, 2 µL of which was added to each well; • e) the plate was shaken on a microplate shaker for 30 seconds, sealed with a sealing membrane, and the mixture was reacted at room temperature for an appropriate time; • f) 4 × working concentration of streptavidin XL-665 and TK antibody-cryptate compound were prepared, mixed in a ratio of 1:1 before being added to the 384-well plate, and added to each well at 10 µL per well; • g) the mixture was reacted at room temperature for 1 hour, and then the plate was read; • h) the wells with only substrate, ATP and 1% DMSO added but no kinase were blank control wells, and the wells with only substrate, ATP, 1% DMSO and kinase were positive control wells.
(§4) Readings: The values of 620 nm (cryptate) and 665 nm (XL665) were read with a BioTek Synerg Neo2 microplate reader, the ratio of 665/620 for each well was calculated, and the data were exported.
(§5) Data analysis: IC50 was calculated using GraphPad Prism 7.0 software.
(§6) The IC50 (half-maximal inhibitory concentration) of the compound was obtained using the following nonlinear fitting formula: Y = Bottom + (Top−Bottom)/(1+10^(∧)((LogIC50−X)*HillSlope)) [formula] • X: Log value of the compound concentration • Y: Inhibition rate (% inhibition) • Top: Maximum response • Bottom: Baseline response • HillSlope: Slope of the curve
(§7) The formula for calculating kinase inhibition rate (inhibition rate %) was: [formula]

[2] = molecular target: T2, BTK C481S (Homo sapiens, UniProt Q06187, C481S); experiment: Kinase activity inhibition assay (HTRF TK Kit)
T2 construct: purchased Carna 08-547
T2 sequence (Q06187 whole entry C481S): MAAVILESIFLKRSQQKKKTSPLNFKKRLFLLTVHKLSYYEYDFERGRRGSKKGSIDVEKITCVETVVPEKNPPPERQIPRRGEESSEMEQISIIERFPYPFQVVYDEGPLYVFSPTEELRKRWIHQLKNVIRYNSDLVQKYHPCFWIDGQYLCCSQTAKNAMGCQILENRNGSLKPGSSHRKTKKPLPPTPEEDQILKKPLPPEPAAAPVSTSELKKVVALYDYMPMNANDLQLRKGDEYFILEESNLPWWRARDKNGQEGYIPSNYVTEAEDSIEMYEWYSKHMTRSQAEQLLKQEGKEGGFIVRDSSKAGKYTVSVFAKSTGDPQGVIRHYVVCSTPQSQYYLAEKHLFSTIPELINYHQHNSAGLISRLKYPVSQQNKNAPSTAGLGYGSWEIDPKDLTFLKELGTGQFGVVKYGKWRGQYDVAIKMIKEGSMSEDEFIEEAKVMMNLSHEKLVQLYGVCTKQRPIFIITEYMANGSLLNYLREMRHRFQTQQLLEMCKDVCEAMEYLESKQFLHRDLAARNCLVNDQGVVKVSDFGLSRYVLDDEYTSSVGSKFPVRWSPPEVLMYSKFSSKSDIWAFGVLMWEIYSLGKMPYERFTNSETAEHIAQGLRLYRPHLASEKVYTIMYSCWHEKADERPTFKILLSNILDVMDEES
Text: as §1, §2, §3, §4, §5, §6, §7

[3] = molecular target: T3, BTK T474I (Homo sapiens, UniProt Q06187, T474I); experiment: Kinase activity inhibition assay (HTRF TK Kit)
T3 construct: purchased SignalChem B10-12HH
T3 sequence (Q06187 whole entry T474I): as the sequence (Q06187 whole entry C481S) above, with T474I, S481C counted along it
Text: as §1, §2, §3, §4, §5, §6, §7

[4] = molecular target: T4, TEC (Homo sapiens, UniProt P42680); experiment: Kinase activity inhibition assay (HTRF TK Kit), selectivity
T4 construct: purchased Carna 08-182
T4 sequence (P42680 1-631): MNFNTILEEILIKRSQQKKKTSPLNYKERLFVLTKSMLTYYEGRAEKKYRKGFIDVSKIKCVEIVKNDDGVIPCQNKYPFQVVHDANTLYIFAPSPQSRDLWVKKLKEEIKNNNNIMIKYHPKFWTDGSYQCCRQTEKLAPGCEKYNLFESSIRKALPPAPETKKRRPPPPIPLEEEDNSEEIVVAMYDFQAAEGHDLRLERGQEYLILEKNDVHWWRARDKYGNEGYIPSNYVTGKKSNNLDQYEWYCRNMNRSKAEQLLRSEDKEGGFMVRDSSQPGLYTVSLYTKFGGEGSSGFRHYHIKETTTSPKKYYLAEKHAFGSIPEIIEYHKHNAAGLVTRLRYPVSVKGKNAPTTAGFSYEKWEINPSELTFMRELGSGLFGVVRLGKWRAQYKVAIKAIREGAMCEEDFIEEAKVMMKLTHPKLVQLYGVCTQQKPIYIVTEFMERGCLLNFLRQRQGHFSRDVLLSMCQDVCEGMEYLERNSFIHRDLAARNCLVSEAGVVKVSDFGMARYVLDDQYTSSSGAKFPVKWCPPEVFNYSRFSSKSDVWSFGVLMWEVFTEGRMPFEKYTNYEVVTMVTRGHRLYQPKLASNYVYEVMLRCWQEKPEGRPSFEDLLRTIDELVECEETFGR
Text: as §1, §2, §3, §4, §5, §6, §7

[5] = molecular target: T5, EGFR (Homo sapiens, UniProt P00533); experiment: as above
T5 construct: purchased Carna 08-115
T5 sequence (P00533 669-1210 limits assumed): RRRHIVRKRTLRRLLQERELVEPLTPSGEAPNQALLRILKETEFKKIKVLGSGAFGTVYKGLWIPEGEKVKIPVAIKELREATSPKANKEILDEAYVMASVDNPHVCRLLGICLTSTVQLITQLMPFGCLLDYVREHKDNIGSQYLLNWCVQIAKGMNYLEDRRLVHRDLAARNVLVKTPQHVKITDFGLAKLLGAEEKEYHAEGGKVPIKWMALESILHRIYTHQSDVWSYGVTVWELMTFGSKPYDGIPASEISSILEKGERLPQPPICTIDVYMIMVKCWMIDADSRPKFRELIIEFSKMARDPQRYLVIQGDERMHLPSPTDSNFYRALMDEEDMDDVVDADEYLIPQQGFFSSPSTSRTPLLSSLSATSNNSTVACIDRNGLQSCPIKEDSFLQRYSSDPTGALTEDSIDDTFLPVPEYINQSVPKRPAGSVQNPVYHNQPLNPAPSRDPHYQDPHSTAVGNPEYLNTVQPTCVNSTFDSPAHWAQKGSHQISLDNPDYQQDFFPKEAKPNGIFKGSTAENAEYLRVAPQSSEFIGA
Text: as §1, §2, §3, §4, §5, §6, §7

[6] = molecular target: T6, ITK (Homo sapiens, UniProt Q08881); experiment: as above
T6 construct: purchased Carna 08-181
T6 sequence (Q08881 1-620): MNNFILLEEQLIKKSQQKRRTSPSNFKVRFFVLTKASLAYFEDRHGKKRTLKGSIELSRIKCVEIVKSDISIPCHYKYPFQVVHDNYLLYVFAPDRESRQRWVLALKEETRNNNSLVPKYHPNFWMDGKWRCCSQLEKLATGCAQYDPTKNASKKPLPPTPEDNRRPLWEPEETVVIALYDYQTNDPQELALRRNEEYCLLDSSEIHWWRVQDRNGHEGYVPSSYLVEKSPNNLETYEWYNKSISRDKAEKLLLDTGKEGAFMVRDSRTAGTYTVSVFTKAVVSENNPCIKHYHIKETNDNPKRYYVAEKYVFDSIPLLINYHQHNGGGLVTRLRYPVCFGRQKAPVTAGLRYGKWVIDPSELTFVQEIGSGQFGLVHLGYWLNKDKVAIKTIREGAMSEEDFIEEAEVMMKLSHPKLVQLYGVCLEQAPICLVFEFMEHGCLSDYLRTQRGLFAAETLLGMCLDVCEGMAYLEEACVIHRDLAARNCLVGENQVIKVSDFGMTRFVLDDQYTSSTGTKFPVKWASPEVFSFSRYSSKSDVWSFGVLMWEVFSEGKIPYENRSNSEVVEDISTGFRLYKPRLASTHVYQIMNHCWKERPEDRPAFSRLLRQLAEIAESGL
Text: as §1, §2, §3, §4, §5, §6, §7

T1 sequence (Q06187 whole entry): as the sequence (Q06187 whole entry C481S) above, with S481C counted along it

| Compound | pIC50 [1] | pIC50 [2] | pIC50 [3] | pIC50 [4] | pIC50 [5] | pIC50 [6] |
| --- | --- | --- | --- | --- | --- | --- |
| COc1ccc(F)cc1C(=O)NCc1ccc(-c2ncc(-c3ccc(Cl)cn3)c3[nH]nc(N)c23)cc1 [Example 38, N-(4-(3-amino-7-(5-chloropyridin-2-yl)-1H-pyrazolo[4,3-c]pyridin-4-yl)benzyl)-5-fluoro-2-methoxybenzamide] | 7.30 to 8.30 | 8.30 to 9.00 | 6.30 to 7.30 | 7.30 to 8.30 | 6.30 to 7.30 | < 6.30 |
| COc1ccc(F)cc1C(=O)NCc1ccc(-c2ncc(-c3ccc(OC(F)(F)F)cn3)c3[nH]nc(N)c23)cc1 [Example 41, N-(4-(3-amino-7-(5-(trifluoromethoxy)pyridin-2-yl)-1H-pyrazolo[4,3-c]pyridin-4-yl)benzyl)-5-fluoro-2-methoxybenzamide] | 8.30 to 9.00 | ≥ 9.00 | 7.30 to 8.30 | 7.30 to 8.30 | 6.30 to 7.30 | 6.30 to 7.30 |
| COc1ccc(F)cc1C(=O)NCc1ccc(-c2ncc(-c3ccc(C4COC4)cn3)c3[nH]nc(N)c23)cc1 [Example 43, N-(4-(3-amino-7-(5-(oxetan-3-yl)pyridin-2-yl)-1H-pyrazolo[4,3-c]pyridin-4-yl)benzyl)-5-fluoro-2-methoxybenzamide] | ≥ 9.00 | ≥ 9.00 | 7.30 to 8.30 | 8.30 to 9.00 | 7.30 to 8.30 | 6.30 to 7.30 |
| COc1ccc(F)cc1C(=O)NCc1ccc(-c2ncc(-c3cc4ncccn4n3)c3[nH]nc(N)c23)cc1 [Example 44, N-(4-(3-amino-7-(pyrazolo[1,5-a]pyrimidin-2-yl)-1H-pyrazolo[4,3-c]pyridin-4-yl)benzyl)-5-fluoro-2-methoxybenzamide] | ≥ 9.00 | ≥ 9.00 | 7.30 to 8.30 | 7.30 to 8.30 | 7.30 to 8.30 | 6.30 to 7.30 |
| CCOC(=O)c1cnc2cc(-c3cnc(-c4ccc(CNC(=O)c5cc(F)ccc5OC)cc4)c4c(N)n[nH]c34)nn2c1 [Example 45, ethyl 2-(3-amino-4-(4-((5-fluoro-2-methoxybenzoylamino)methyl)phenyl)-1H-pyrazolo[4,3-c]pyridin-7-yl)pyrazolo[1,5-a]pyrimidine-6-carboxylate] | 7.30 to 8.30 | 7.30 to 8.30 | < 6.30 | 6.30 to 7.30 | 6.30 to 7.30 | < 6.30 |

Other lines, results leading:

| pIC50 [1] | pIC50 [2] | pIC50 [3] | pIC50 [4] | pIC50 [5] | pIC50 [6] | Compound |
| --- | --- | --- | --- | --- | --- | --- |
| 8.30 to 9.00 | 8.30 to 9.00 | 6.30 to 7.30 | 6.30 to 7.30 | 6.30 to 7.30 | < 6.30 | COc1ccc(F)cc1C(=O)NCc1ccc(-c2ncc(-c3ncc(F)cn3)c3[nH]nc(N)c23)cc1 [Example 36, N-(4-(3-amino-7-(5-fluoropyrimidin-2-yl)-1H-pyrazolo[4,3-c]pyridin-4-yl)benzyl)-5-fluoro-2-methoxybenzamide] |
| ≥ 9.00 | ≥ 9.00 | 6.30 to 7.30 | 7.30 to 8.30 | 6.30 to 7.30 | < 6.30 | COc1ccc(F)cc1C(=O)NCc1ccc(-c2ncc(-c3ccc(C)cn3)c3[nH]nc(N)c23)cc1 [Example 37, N-(4-(3-amino-7-(5-methylpyridin-2-yl)-1H-pyrazolo[4,3-c]pyridin-4-yl)benzyl)-5-fluoro-2-methoxybenzamide] |
| ≥ 9.00 | ≥ 9.00 | 7.30 to 8.30 | 7.30 to 8.30 | 6.30 to 7.30 | 6.30 to 7.30 | COc1ccc(F)cc1C(=O)NCc1ccc(-c2ncc(-c3ncc(C)cn3)c3[nH]nc(N)c23)cc1 [Example 39, N-(4-(3-amino-7-(5-methylpyrimidin-2-yl)-1H-pyrazolo[4,3-c]pyridin-4-yl)benzyl)-5-fluoro-2-methoxybenzamide] |
| 8.30 to 9.00 | 8.30 to 9.00 | < 6.30 | 6.30 to 7.30 | < 6.30 | < 6.30 | COc1ccc(F)cc1C(=O)NCc1ccc(-c2ncc(-c3ncc(C(F)(F)F)cn3)c3[nH]nc(N)c23)cc1 [Example 42, N-(4-(3-amino-7-(5-(trifluoromethyl)pyrimidin-2-yl)-1H-pyrazolo[4,3-c]pyridin-4-yl)benzyl)-5-fluoro-2-methoxybenzamide] |
